Assay results: PubChem BioAssay (NCI)
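96-well plates; 48 h exposure; 5 concentrations. Endpoints by linear interpolation between flanking doses. Not reached: highest tested concentration assigned. TGI marks complete inhibition of growth.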

Tests used:
Assay in all cases: NCI-60 cell line screen, 48 h
[1] = system: 786-0 renal
[2] = system: A498 renal
[3] = system: A549 NSCLC
[4] = system: ACHN renal
[5] = system: BT-549 breast
[6] = system: CAKI-1 renal
[7] = system: CCRF-CEM leukemia
[8] = system: COLO 205 colon
[9] = system: DU-145 prostate
[10] = system: EKVX NSCLC
[11] = system: HCC-2998 colon
[12] = system: HCT-116 colon
[13] = system: HCT-15 colon
[14] = system: HL-60(TB) leukemia
[15] = system: HOP-62 NSCLC
[16] = system: HOP-92 NSCLC
[17] = system: HS 578T breast
[18] = system: HT29 colon
[19] = system: IGROV1 ovarian
[20] = system: K-562 leukemia
[21] = system: KM12 colon
[22] = system: LOX IMVI melanoma
[23] = system: M14 melanoma
[24] = system: MALME-3M melanoma
[25] = system: MCF7 breast
[26] = system: MDA-MB-231 breast
[27] = system: MDA-MB-435
[28] = system: MDA-N
[29] = system: MOLT-4 leukemia
[30] = system: NCI-H226 lung
[31] = system: NCI-H23 lung
[32] = system: NCI-H460 lung
[33] = system: NCI-H522 lung
[34] = system: NCI/ADR-RES ovarian
[35] = system: OVCAR-3 ovarian
[36] = system: OVCAR-4 ovarian
[37] = system: OVCAR-5 ovarian
[38] = system: OVCAR-8 ovarian
[39] = system: PC-3 prostate
[40] = system: RPMI-8226 leukemia
[41] = system: RXF 393 renal
[42] = system: SF-268 CNS
[43] = system: SF-295 CNS
[44] = system: SF-539 CNS
[45] = system: SK-MEL-2 melanoma
[46] = system: SK-MEL-28 melanoma
[47] = system: SK-MEL-5 melanoma
[48] = system: SK-OV-3 ovarian
[49] = system: SN12C renal
[50] = system: SNB-19 CNS
[51] = system: SNB-75 CNS
[52] = system: SR leukemia
[53] = system: SW-620 colon
[54] = system: T-47D breast
[55] = system: TK-10 renal
[56] = system: U251 CNS
[57] = system: UACC-257 melanoma
[58] = system: UACC-62 melanoma
[59] = system: UO-31 renal

SMILES: Cc1ccc(C(N)=Nc2ccccc2)cc1
- TGI [1]: > 100 µM
- TGI [2]: > 100 µM
- TGI [3]: > 100 µM
- TGI [4]: > 100 µM
- TGI [5]: > 100 µM
- TGI [6]: > 100 µM
- TGI [7]: > 100 µM
- TGI [8]: 42.2 µM
- TGI [9]: > 100 µM
- TGI [10]: > 100 µM
- TGI [11]: 33.7 µM
- TGI [12]: > 100 µM
- TGI [13]: > 100 µM
- TGI [14]: > 100 µM
- TGI [15]: > 100 µM
- TGI [16]: > 100 µM
- TGI [17]: > 100 µM
- TGI [18]: > 100 µM
- TGI [19]: > 100 µM
- TGI [20]: > 100 µM
- TGI [21]: > 100 µM
- TGI [22]: > 100 µM
- TGI [23]: > 100 µM
- TGI [24]: > 100 µM
- TGI [25]: > 100 µM
- TGI [26]: > 100 µM
- TGI [27]: > 100 µM
- TGI [28]: > 100 µM
- TGI [29]: > 100 µM
- TGI [30]: > 100 µM
- TGI [31]: > 100 µM
- TGI [32]: > 100 µM
- TGI [33]: > 100 µM
- TGI [34]: > 100 µM
- TGI [35]: > 100 µM
- TGI [36]: > 100 µM
- TGI [37]: > 100 µM
- TGI [38]: > 100 µM
- TGI [39]: > 100 µM
- TGI [40]: > 100 µM
- TGI [41]: > 100 µM
- TGI [42]: > 100 µM
- TGI [43]: > 100 µM
- TGI [44]: > 100 µM
- TGI [45]: > 100 µM
- TGI [46]: > 100 µM
- TGI [47]: > 100 µM
- TGI [48]: > 100 µM
- TGI [49]: > 100 µM
- TGI [50]: > 100 µM
- TGI [51]: > 100 µM
- TGI [52]: > 100 µM
- TGI [53]: > 100 µM
- TGI [54]: > 100 µM
- TGI [55]: > 100 µM
- TGI [56]: > 100 µM
- TGI [57]: > 100 µM
- TGI [58]: > 100 µM
- TGI [59]: > 100 µM

SMILES: COc1ccc(NC(=S)N=Nc2c(O)[nH]c3ccccc23)cc1
- TGI [1]: > 55.9 µM
- TGI [2]: > 83.3 µM
- TGI [3]: > 100 µM
- TGI [4]: > 95.4 µM
- TGI [5]: 33.2 µM
- TGI [6]: 98.3 µM
- TGI [7]: > 100 µM
- TGI [8]: > 100 µM
- TGI [9]: > 100 µM
- TGI [10]: > 100 µM
- TGI [11]: > 100 µM
- TGI [12]: > 100 µM
- TGI [13]: > 100 µM
- TGI [14]: > 100 µM
- TGI [15]: > 45.5 µM
- TGI [16]: > 78.7 µM
- TGI [17]: > 100 µM
- TGI [18]: > 100 µM
- TGI [19]: > 100 µM
- TGI [20]: > 100 µM
- TGI [21]: > 100 µM
- TGI [22]: > 100 µM
- TGI [23]: > 100 µM
- TGI [24]: > 42.8 µM
- TGI [25]: > 100 µM
- TGI [26]: > 90.8 µM
- TGI [27]: > 100 µM
- TGI [28]: > 100 µM
- TGI [29]: > 100 µM
- TGI [30]: > 100 µM
- TGI [31]: > 100 µM
- TGI [32]: > 100 µM
- TGI [33]: > 100 µM
- TGI [34]: > 42.6 µM
- TGI [35]: > 58.6 µM
- TGI [36]: > 95.2 µM
- TGI [37]: > 100 µM
- TGI [38]: > 76.2 µM
- TGI [39]: > 70 µM
- TGI [40]: > 100 µM
- TGI [41]: > 61 µM
- TGI [42]: > 100 µM
- TGI [43]: > 58.5 µM
- TGI [44]: > 70.4 µM
- TGI [45]: > 76.4 µM
- TGI [46]: > 100 µM
- TGI [47]: > 100 µM
- TGI [48]: > 68.8 µM
- TGI [49]: > 89 µM
- TGI [50]: > 100 µM
- TGI [51]: > 78.8 µM
- TGI [52]: > 100 µM
- TGI [53]: > 100 µM
- TGI [54]: > 100 µM
- TGI [55]: > 79 µM
- TGI [56]: > 59.9 µM
- TGI [57]: > 100 µM
- TGI [58]: > 100 µM
- TGI [59]: > 100 µM

SMILES: CC(C)OC(=O)c1ccc(CCc2cc(O)c(Br)cc2O)cc1
- TGI [1]: 25.4 µM
- TGI [2]: 41.8 µM
- TGI [3]: 44.8 µM
- TGI [4]: 31.9 µM
- TGI [5]: 30 µM
- TGI [6]: 25 µM
- TGI [7]: 14.3 µM
- TGI [8]: 28.7 µM
- TGI [9]: 28.6 µM
- TGI [10]: 29.4 µM
- TGI [11]: 29.6 µM
- TGI [12]: 25.3 µM
- TGI [13]: 14 µM
- TGI [14]: 38.9 µM
- TGI [15]: 24.7 µM
- TGI [16]: 35.2 µM
- TGI [17]: 42.1 µM
- TGI [18]: 37.4 µM
- TGI [19]: 23.1 µM
- TGI [20]: > 58.9 µM
- TGI [21]: 18.1 µM
- TGI [22]: 20.8 µM
- TGI [23]: 29.9 µM
- TGI [24]: 31.1 µM
- TGI [25]: 29.4 µM
- TGI [26]: 26.7 µM
- TGI [27]: 20.8 µM
- TGI [28]: 24 µM
- TGI [29]: 52.1 µM
- TGI [30]: 39.8 µM
- TGI [31]: 22.8 µM
- TGI [32]: 34.5 µM
- TGI [33]: 23.8 µM
- TGI [34]: 25.5 µM
- TGI [35]: 19.5 µM
- TGI [36]: 5.54 µM
- TGI [37]: 31.8 µM
- TGI [38]: 29.5 µM
- TGI [39]: 19.2 µM
- TGI [40]: 8.18 µM
- TGI [41]: 28.3 µM
- TGI [42]: 25.6 µM
- TGI [43]: 32.3 µM
- TGI [44]: 15.7 µM
- TGI [45]: 26.7 µM
- TGI [46]: 26.9 µM
- TGI [47]: 28.3 µM
- TGI [48]: 35.6 µM
- TGI [49]: 28.9 µM
- TGI [50]: 27.9 µM
- TGI [51]: 46.5 µM
- TGI [52]: 64.9 µM
- TGI [53]: 22 µM
- TGI [54]: 53.2 µM
- TGI [55]: 30.6 µM
- TGI [56]: 17.5 µM
- TGI [57]: 26.4 µM
- TGI [58]: 34.4 µM
- TGI [59]: 10.2 µM

SMILES: COc1cc(C2c3cc4c(cc3CC3COC(=O)N32)OCO4)cc(OC)c1OC (stereo unspecified)
- TGI [1]: > 100 µM
- TGI [2]: > 100 µM
- TGI [3]: > 100 µM
- TGI [4]: > 100 µM
- TGI [5]: > 100 µM
- TGI [6]: > 100 µM
- TGI [7]: > 36.4 µM
- TGI [8]: 4.89 µM
- TGI [9]: > 100 µM
- TGI [10]: > 100 µM
- TGI [11]: 8.7 µM
- TGI [12]: > 100 µM
- TGI [13]: > 27.9 µM
- TGI [14]: 8.6 µM
- TGI [15]: > 100 µM
- TGI [16]: > 94.9 µM
- TGI [17]: > 57.2 µM
- TGI [18]: 5.14 µM
- TGI [19]: > 100 µM
- TGI [20]: > 100 µM
- TGI [21]: > 61.7 µM
- TGI [22]: > 100 µM
- TGI [23]: > 100 µM
- TGI [24]: > 100 µM
- TGI [25]: > 100 µM
- TGI [26]: 30 µM
- TGI [27]: 1.44 µM
- TGI [28]: 1.28 µM
- TGI [29]: > 61.8 µM
- TGI [30]: > 92.5 µM
- TGI [31]: > 31.6 µM
- TGI [32]: > 100 µM
- TGI [33]: 5.66 µM
- TGI [34]: 4.26 µM
- TGI [35]: 5.05 µM
- TGI [36]: > 100 µM
- TGI [37]: > 100 µM
- TGI [38]: > 100 µM
- TGI [39]: > 100 µM
- TGI [40]: > 100 µM
- TGI [41]: > 100 µM
- TGI [42]: > 100 µM
- TGI [43]: 5.35 µM
- TGI [44]: 5.8 µM
- TGI [45]: > 100 µM
- TGI [46]: > 100 µM
- TGI [47]: 35.6 µM
- TGI [48]: > 100 µM
- TGI [49]: > 48.1 µM
- TGI [50]: > 100 µM
- TGI [51]: > 100 µM
- TGI [52]: > 28.7 µM
- TGI [53]: > 100 µM
- TGI [54]: > 100 µM
- TGI [55]: > 100 µM
- TGI [56]: > 31.6 µM
- TGI [57]: > 100 µM
- TGI [58]: > 100 µM
- TGI [59]: > 100 µM
